Molecules are shown by their SMILES. Where two headings read alike, the source gives them in different places. Where only a bound is given, the exact number is not on record here.

Assay [1] has as its target T1, His-tagged HIV-1 RT WT (Human immunodeficiency virus type 1 group M subtype B, UniProt P03367).
T1 construct: The p66/p51 HIV-1 RT heterodimer engineered with a N-terminal histidine tag; His tag (histidine tag) (N); made in house; host or cells: Escherichia coli strain M15 (vector pRT6H-PR)
Briefly: Surface plasmon resonance, WT RT. In kind it is binding. The procedure: (§1) Compound binding to recombinant HIV-1 RT was measured by surface plasmon resonance (SPR). SPR is an optical biosensor detection method that involves passing an analyte (often a fragment) in a buffer solution over a gold surface chip with an immobilized protein (RT enzyme) and detecting the change in plasmon resonance angle which is dependent on the refractive index of the medium near the surface. As compounds bind to the target protein, the refractive index changes proportionally to the extent of binding. This can then be used to measure the association and dissociation kinetics of binding as well as the compound’s affinity for binding.
(§2) SPR assays were performed on a Biacore S200 (GE Healthcare). His-tagged RT (WT, K103N, Y181C or K103N/Y181C) was immobilized on the surface of a Biacore compatible NIHC 1500M (Xantec) chip according to manufacturer’s instructions. Following 3 injections 300 s each of 0.5 M EDTA, the chip surface was activated with a 120 s injection of 5 mM NiCl2 followed by a 2100 s injection of 130 nM RT. The final immobilization level of RT was typically 14,000–27,000 RU. SPR experiments were carried out at 25 °C using a flow rate of 50 µL/min in running buffer. The running buffer was 1.053 × (HBS pH 7.4 + 50 µM EDTA + 0.005% Tween-20). Compounds were provided as 200 mM stocks and diluted in running buffer to obtain the concentrations required for dose-response studies (0, 6.25, 12.5, 25, 50, 100 and 200 µM). Raw sensorgram data were analyzed using Biacore S200 Evaluation Software. Dose-response determinations were evaluated using a 1:1 binding model. KD values were determined by Biacore S200 Evaluation Software Version 1.0. assuming 1:1 binding. For compounds approaching saturation, Rmax was floated. For compounds with insufficient curvature, Rmax was fixed based on a control. Errors were determined as the standard error in the dose-response fit, as calculated by Biacore S200 Evaluation Software.

For assay [2], the target named is T2, recombinant WT HIV-1 RT (Human immunodeficiency virus type 1 group M subtype B, UniProt P03367).
T2 construct: The p66/p51 HIV-1 RT heterodimer engineered with a N-terminal histidine tag; His tag (histidine tag) (N); made in house; host or cells: Escherichia coli strain M15 (vector pRT6H-PR)
Briefly: biochemical. To be noted: for IC50: RT Inhibition—IC50 ± SEM, WT, WT RT DDDP activity, PicoGreen or 33P radiolabeled assay, value not marked as PicoGreen, n ≥ 2; for fold improvement on parent compound B-1: IC50 vs B-1 IC50 >1000 μM in the radioactive RT assay; for Ligand efficiency (LE): binding to WT RT, LE = −1.4(logIC50)/N. As to the method: (§3) The inhibitory activity of all compounds was evaluated in vitro in assays that measure the DNA-dependent DNA polymerase (DDDP) activity of HIV-1 RT. Compounds were tested against recombinant WT and drug-resistant HIV-1 RT mutants (K103N, Y181C or K103N/Y181C). […] The IC50 value of nevirapine was determined in parallel to control for the performance of the assay. […] These RT mutations either reduce the rate of entry of NNRTIs to the binding pocket (K103N) or remove aromatic interactions that favor binding (Y181C). Initially, compound IC50 values were determined in an assay that quantifies DDDP activity mediated by HIV-1 RT using a radiolabeled ^33PdTTP substrate and more recently using a nonradioactive PicoGreen-based spectrophotometric assay.
(§4) Recombinant HIV-1 RT: The p66/p51 HIV-1 RT heterodimer engineered with a N-terminal histidine tag was expressed from the pRT6H-PR vector (provided by Nicolas Sluis-Cremer) which is based on pRT6H-PROT [37], except that the RT coding region is derived from the infectious molecular clone xxLAI [38]. This xxLAI clone contains the HIV-1LAI backbone and is engineered with silent mutations introducing Xma I and Xba I sites in the RT coding region at nucleotide positions 40–45 and 1470 to 1475, respectively. pRT6H-PR expressing the NNRTI drug-resistant mutations K103N, Y181C and K103N/Y181C were generated by subcloning Xma I/Xba I fragments in xxLAI harboring the desired NNRTI mutations (Giacobbi NS and Sluis-Cremer 2017 AAC) into the corresponding restriction sites in the RT coding region of p6HRT-PR. RT was expressed in Escherichia coli strain M15 and purified using Ni-NTA chromatography as previously described. RT concentrations were determined spectrophotometrically at 280 nm using an extinction coefficient (e280) of 260, 450 M^−1 cm^−1.
(§5) Nevirapine was included in assays as a positive control for inhibiting RT polymerase activity. The DDDP assay was performed by first adding 25 ng of HIV-1 RT to test compound in 96-well plates followed by initiating RT polymerase activity by adding 200 ng of activated calf thymus (ACT) DNA (Sigma Aldrich), 0.2 µCi ^33P-α-dTTP (Perkin Elmer), 50 mM Tris-HCl pH 7.8 50 mM KCl, […], 50 µM dNTP mix (Bioline), 0.1 mg/mL bovine serum albumin (New England Biolabs), 0.01% IGEPAL (Sigma) and 1 mM dithiothreitol. Reactions contained 2.5% dimethyl sulfoxide (DMSO). Following incubation at 37 °C for 10 min, samples from duplicate wells were applied to Whatman DE81 ion-exchange paper (GE Healthcare); dried membranes were washed in 2X saline-sodium citrate (SSC) buffer; and incorporated counts were quantified using an FLP-2000 phosphorimager (Fujifilm) or Typhoon Trio Phosphorimager (GE Healthcare) as published. Dose–response curves were generated using PRISM GraphPad version 8 by plotting the log transformed drug concentrations against percentage inhibition of DDDP activity compared to the no drug control using non-linear regression analysis.
(§6) Non-radioactive DDDP Assay: DDDP assays were also performed using a PicoGreen based spectrophotometric assay to detect double-stranded DNA synthesized by recombinant HIV-1 RT [15]. Assays were performed as described for the […] DDDP assay except that instead of ACT, the reaction contained 40 nM of a template/primer comprising a 200 nt DNA template (5′-[…] […]-3′) annealed to a 18 nucleotide DNA primer (5′-[…]-3′), 50 mM Tris-HCl pH 7.8, 50 mM KCl, 10 mM MgCl2 and 50 µM dNTP mix.

In assay [3] the target is T3, HIV-1 RT K103N/Y181C mutant (Human immunodeficiency virus type 1 group M subtype B, UniProt P03367, K702N/Y780C).
T3 construct: The p66/p51 HIV-1 RT heterodimer engineered with a N-terminal histidine tag; His tag (histidine tag) (N); made in house; host or cells: Escherichia coli strain M15 (vector pRT6H-PR)
Briefly: DDDP activity assay, K103N/Y181C RT mutant. Format: biochemical. The procedure: as §3, §4, §5, §6

Assay [4] has as its target T4, His-tagged HIV-1 RT K103N (Human immunodeficiency virus type 1 group M subtype B, UniProt P03367, K702N).
T4 construct: The p66/p51 HIV-1 RT heterodimer engineered with a N-terminal histidine tag; His tag (histidine tag) (N); made in house; host or cells: Escherichia coli strain M15 (vector pRT6H-PR)
Briefly: Surface plasmon resonance, K103N RT. As to conditions: ± standard error of dose–response fit, n = 1; NB = no binding observed; read-out: SPR—KD, K103N. As to the method: as §1, §2

Assay [5] addresses T5, His-tagged HIV-1 RT K103N/Y181C (Human immunodeficiency virus type 1 group M subtype B, UniProt P03367, K702N/Y780C).
T5 construct: The p66/p51 HIV-1 RT heterodimer engineered with a N-terminal histidine tag; His tag (histidine tag) (N); made in house; host or cells: Escherichia coli strain M15 (vector pRT6H-PR)
Briefly: Surface plasmon resonance, K103N/Y181C RT. Format: binding. As to the method: as §1
(§7) SPR assays were performed on a Biacore S200 (GE Healthcare). His-tagged RT (WT, K103N, Y181C or K103N/Y181C) was immobilized on the surface of a Biacore compatible NIHC 1500M (Xantec) chip according to manufacturer’s instructions. Following 3 injections 300 s each of 0.5 M EDTA, the chip surface was activated with a 120 s injection of 5 mM NiCl2 followed by a 2100 s injection of 130 nM RT. […] Raw sensorgram data were analyzed using Biacore S200 Evaluation Software. Dose-response determinations were evaluated using a 1:1 binding model. KD values were determined by Biacore S200 Evaluation Software Version 1.0. assuming 1:1 binding. […] Errors were determined as the standard error in the dose-response fit, as calculated by Biacore S200 Evaluation Software.

Assay [6] relates to His-tagged HIV-1 RT K103N/Y181C. Briefly: Surface plasmon resonance, K103N/Y181C RT. In kind it is binding. To be noted: SPR. As to the method: as §1, §7
The test system of assay [7] is HIV-1 RT K103N/Y181C mutant. Briefly: DDDP activity assay, K103N/Y181C RT mutant. As to conditions: nonsignificant. Format: biochemical. As to the method:
as §3, §4, §5, §6

Assay [8] concerns HIV-1 RT (WT RT construct RT35A). As to conditions: assay detects inhibition of both DNA polymerase and RNase H activity; read-out: IC50 (Bauman et al.); cited from earlier work.
Setting [9] is: read-out: SPR—KD, WT, ± standard error of dose–response fit, n = 1, NB = no binding observed.

Regarding `CCOC(=O)c1cnn2c(C)cc(Cl)cc12` [compound 14, Ethyl 5-Chloro-7-methylpyrazolo[1,5-a]pyridine-3-carboxylate], in assay [1] (setting [9]), the dissociation constant Kd was > 200 µM. For the same compound, the half-inhibitory concentration (IC50) in assay [2] is > 1000 µM.

Take `O=C(O)c1cnn2cccc(Br)c12` [compound 17, 4-Bromopyrazolo[1,5-a]pyridine-3-carboxylic Acid]: the Kd in assay [1] (setting [9]) is > 200 µM. For the same compound, the half-inhibitory concentration (IC50) in assay [2] is > 1000 µM.

Compound `CCOC(=O)c1cnn2cccc(C#CCCCCCO)c12` [compound 26, Ethyl 4-(7-Hydroxyhept-1-yn-1-yl)pyrazolo[1,5-a]pyridine-3-carboxylate] came in with a Kd in assay [1] of 173 ± 9 µM. Besides, in assay [2], the “fold improvement on parent compound B-1” value was > 20 fold, the 50% inhibitory concentration (IC50) was 24 ± 6 µM and the “Ligand efficiency (LE)” value turned out to be 0.30 kcal/mol/HA. Besides, it took 35 ± 7 µM to reach half-maximal inhibition in assay [3] (IC50). Also, in assay [4], the dissociation constant Kd was found to be 233 ± 22 µM.

`CCOC(=O)c1cnn2cccc(C#CC3CC3)c12` [compound 27, Ethyl 4-(Cyclopropylethynyl)pyrazolo[1,5-a]pyridine-3-carboxylate]: the values for the equilibrium dissociation constant (Kd) in assay [5], in assay [1] and in assay [4] were 187 ± 15 µM, 79 ± 7 µM and 187 ± 15 µM, respectively. In addition, the “fold decrease in binding, K103N/Y181C double mutant vs WT” value in assay [6] was 2–3 fold. Moreover, the “fold improvement on parent compound B-1” value in assay [2] is > 20 fold. The IC50 in assay [2] amounted to 11 ± 1 µM; in assay [3], 34 ± 8 µM. For the same compound, in assay [2], the “Ligand efficiency (LE)” value is reported as 0.37 kcal/mol/HA. Also, the “fold decrease in susceptibility, K103N/Y181C mutant compared to WT RT” value in assay [7] came out at 3.0 fold.

`CCCC#Cc1cccn2ncc(C(=O)OCC)c12` [compound 28, Ethyl 4-(pent-1-yn-1-yl)pyrazolo[1,5-a]pyridine-3-carboxylate] came in with a dissociation constant (Kd) in assay [1] of 275 ± 9 µM. Also, in assay [2], the “fold improvement on parent compound B-1” value is > 20 fold, the IC50 was 53 ± 4 µM and the “Ligand efficiency (LE)” value stood at 0.32 kcal/mol/HA. The same compound had a half-inhibitory concentration (IC50) in assay [3] of 105 ± 6 µM.

In the case of `C#Cc1cccn2ncc(C(=O)OCC)c12` [compound 29, Ethyl 4-ethynylpyrazolo[1,5-a]pyridine-3-carboxylate], binding in assay [1] was put at a Kd of 395 ± 35 µM. Moreover, in assay [2], the “fold improvement on parent compound B-1” value is listed as > 20 fold, the IC50 came to 27 ± 26 µM and the “Ligand efficiency (LE)” value came out at 0.40 kcal/mol/HA. Further, the midpoint of inhibition in assay [3], the IC50, lay at 43 ± 14 µM.

Turning to `CCOC(=O)c1cnn2ccccc12` [compound B-1, ethyl pyrazolo[1,5-a]pyridine-3-carboxylate, reference compound], the Kd in assay [1] (setting [9]) was > 200 µM. Besides, the 50% inhibitory concentration (IC50) is 208 µM in assay [3] and 350 µM in assay [8].
